Entries after “also recorded” stand apart in the source; their conditions may differ.
Key:
BAD = experiment: Western blotting of BAD phosphorylation in podocytes; assay type: cell-based, mouse; settings: 10 nmol/l
Description: (§1) A well established cell model of conditionally immortalized murine podocytes was used to determine the impact of calcimimetics on podocyte function. These immortalized podocyte cell lines were generated from the Inmortomouse® (Charles River, Wilmington, Mass., USA) carrying a temperature-sensitive T-antigen as transgene, under the control of an interferon-γ inducible promoter. […]
(§2) Protein extraction from cultured podocytes and SDS-PAGE were done as previously described (Weins et al., supra). Total and phosphorylated proteins were detected by Western blotting as described previously, using the following primary antibodies: Bad (dilution 1:1000), pBad (1:1000), Bax (1:1000), Bid (1:1000), Bcl-xl (1:500), CREB (1:4000), ERK1/2 (1:4000), pERK 1/2 (1:4000), pJNK (1:1000), p38MAPK (1:500), p90RSK (1:2000) (Cell Signaling Technology, Beverly, Mass., USA), Bcl-2 (1:500), Caveolin-1 (1:500), 3-Actin (1:10000) (Abcam, Cambridge, UK) CaSR 1:100 (Alpha Diagnostics, San Antonio, Tex., USA). […]

podocytes = experiment: FACS analysis of PAN-induced apoptosis of podocytes; assay type: cell-based, mouse; settings: PAN 30 μg/ml; for reduction of PAN induced increase in apoptosis rate: Compound A 10 mmol/l as printed, p<0.05; for apoptosis rate of cultured podocytes: baseline less than 20% in controls
Description: (§3) A well established cell model of conditionally immortalized murine podocytes was used to determine the impact of calcimimetics on podocyte function. These immortalized podocyte cell lines were generated from the Inmortomouse® (Charles River, Wilmington, Mass., USA) carrying a temperature-sensitive T-antigen as transgene, under the control of an interferon-γ inducible promoter. They were maintained cultured as previously described (Weins A et al. (2001) J Cell Biol 155: 393-404; Asanuma K. et al. (2005). J Clin Invest 115: 1188-1198. In brief, the cell line was maintained in RPMI 1640 (PAA Laboratories, Pasching, Austria) supplemented with 10% fetal bovine serum (PAA Laboratories, Pasching, Austria), 100 U/ml penicillin/streptomycin (Biochrom AG, Berlin, Germany) in humidified incubators with air-5% CO2. In order to induce differentiation, podocytes were grown on collagen type I (BD Bioscience, Bedford, Mass., USA) under permissive conditions at 33° C. with IFN-γ (10 U/ml) (Roche, Mannheim, Germany) or under non-permissive conditions at 37° C. without IFN-γ for at least 10 days.
All cells were treated as described, then washed and trypsinized. All washes and eluted cells were collected, pooled, and centrifuged. After washing cells with Annexin-binding buffer, cells were incubated with FITC-labelled Annexin-V (Molecular Probes) and propidium iodide (Molecular Probes) for 30 min. Annexin-V binds phosphatidylserine, which is translocated to the outer cell membrane during the initial stages of apoptosis. Propidium iodide was also applied to cells in order to distinguish necrosis from apoptosis. Cells were analyzed by flow cytometry (FACScalibur, Becton Dickinson). Apoptosis-associated fluorescence was measured using a log scale. Cells with high propidium iodide content were necrotic and were excluded from the analysis.
This example summarizes the results of FACS analyses. […] PAN (30 μg/ml) increased apoptosis rate of cultured podocytes to 44 and 78% correspondingly after 48 and 60 hrs of incubation, as compared to a baseline apoptosis rate of less than 20% in respective controls (FIG. 11). Addition of Compound A (10 mmol/l) reduced PAN induced increase in apoptosis rate in three independent experiments by 55 and 60% after 48 and 60 hrs respectively (both p<0.05).

CREB = experiment: Western blotting of CREB phosphorylation in podocytes; assay type: cell-based, mouse
Description: as §3, §2
(§4) This CREB activation is able to mediate signals from numerous physiological stimuli, resulting in the regulation of a broad array of cellular responses, such as regulating of apoptosis associated genes. Therefore downstream pro-survival factors were analyzed. […]

BID = experiment: Western blotting of BID in podocytes; assay type: cell-based, mouse; settings: Compound A exposure, HCl
Description: as §1, §2

intracellular proteins = experiment: Activation of intracellular proteins in podocytes by calcimimetic; assay type: cell-based, mouse; settings: 4 nmol/l
Description: as §1, §2

podocytes genes = experiment: Microarray analysis of Compound A-dependent regulation of podocyte genes; assay type: cell-based, mouse; settings: 10 nmol/l, 12 hrs
ERK1/2 = experiment: Western blotting of ERK1/2 phosphorylation in podocytes; assay type: cell-based, mouse
Description: as §3
Protein extraction from cultured podocytes and SDS-PAGE were done as previously described (Weins et al., supra). Total and phosphorylated proteins were detected by Western blotting as described previously, using the following primary antibodies: Bad (dilution 1:1000), pBad (1:1000), Bax (1:1000), Bid (1:1000), Bcl-xl (1:500), CREB (1:4000), ERK1/2 (1:4000), pERK 1/2 (1:4000), pJNK (1:1000), p38MAPK (1:500), p90RSK (1:2000) (Cell Signaling Technology, Beverly, Mass., USA), Bcl-2 (1:500), Caveolin-1 (1:500), 3-Actin (1:10000) (Abcam, Cambridge, UK) CaSR 1:100 (Alpha Diagnostics, San Antonio, Tex., USA). Western blot analysis was carried out according to standard protocols and visualized using enhanced chemiluminescence (ECL) immunoblot detection kits (Amersham Biosciences, Little Chalfont Buckinghamshire, UK).
It has been established previously that the activation of the CaSR induces a variety of intracellular signalling pathways such as the protein kinase C(PKC) and the MAP kinase pathways.
In addition, U0126 suppressed the phosphorylation of CREB (FIG. 10). Blockade of MEK1/2 and MAP kinases can not be bypassed via activation of other pathways such as PKC.

PAN-treated rats = experiment: Animal model of PAN nephrosis (proteinuria); assay type: in vivo, rat
Description: Puromycin aminonucleoside (PAN), which induces oxidant injury in cells via the xanthine oxidase pathway, has been used extensively as a model of podocyte injury. Podocyte injury in this model can be ameliorated by inhibitors of oxidants. Following PAN injection (15 mg/100 g body weight), injury in the rat podocytes is manifest by loss of interdigitating foot processes, detachment from the GBM, pseudocyst formation, reduction in anionic charge, attenuation of the underlying GBM, and associated leakiness of the glomerular filter resulting in proteinuria. The PAN model also progresses to a patchy glomerular scarring process [focal glomerulosclerosis (FSGS)]. FSGS in humans is commonly associated with progression to end-stage renal disease (ESRD) requiring renal replacement therapy. […] Podocytes were stained against WT-1, a specific marker for podocytes and counted under an immunofluorescence microscope.
Male Sprague-Dawley rats weighing approximately 100 g were administered intraperitoneal PAN (Sigma Company, St. Louis, Mo., USA) at a dose of 15 mg/100 g body weight, or additionally at the same time a single injection of Compound A (doses 2 mg/100 g body weight) 4 hours before, or an equivalent volume of 0.9% saline (0.2-0.4 ml/animal) (N=10-15 animals per group). […] Protein/Creatinin ratio was measured with ADVIA 2400, Bayer Diagnostics. […]

JNK = experiment: Western blotting of JNK activation in podocytes; assay type: cell-based, mouse; settings: any time-point, HCl
Description: as §1, §2

p90RSK = experiment: Western blotting of p90RSK phosphorylation in podocytes; assay type: cell-based, mouse; settings: 10 nmol/l, HCl
Description: as §1, §2, §4

Bcl-xL = experiment: Western blotting of Bcl-xL expression in podocytes; assay type: cell-based, mouse; settings: time-dependent, HCl
Description: as §1, §2

p38 MAPK = experiment: Western blotting of p38 MAPK phosphorylation in podocytes; assay type: cell-based, mouse; settings: 10 nmol/l, after 5 min and again after 30 and 60 min, HCl
Description: as §1, §2

[1] = inhibitor 10 mM as printed, Compound A 10 nmol

With `COc1cccc([C@@H](C)NCCCc2ccccc2Cl)c1.Cl` [Compound A, N-(3-[2-chlorophenyl]-propyl)-R-▪-methyl-3-methoxybenzylamine HCl] the “amount of non-phosphorylated BAD” value (BAD) was “decreases”, the “amount of phosphorylated BAD” value (BAD; time-dependent) was “clearly increases” and the “PAN induced apoptosis of podocytes (FIG. 11 legend)” value (podocytes; Compound A 10 nmol/l, 48 h and 60 h) was “prevents”. For the same compound, the “reduction of PAN induced increase in apoptosis rate” value (podocytes; 48 hrs) was 55%, the “reduction of PAN induced increase in apoptosis rate” value (podocytes; 60 hrs) was 60% and the CREB phosphorylation (CREB; 10 nmol/l, HCl) was “leads to CREB phosphorylation; also recorded: induction”. The BID (BID) was “not affected; also recorded: not influenced”, the “activation of intracellular proteins” value (intracellular proteins) was “activation of intracellular proteins was demonstrated” and the “CaSR-regulated genes/number of genes analyzed: Adherens junction” value (podocytes genes) was 11/62. For the same compound, the “CaSR-regulated genes/number of genes analyzed: Adhesion-extracellular matrix” value (podocytes genes) was 14/84, the “CaSR-regulated genes/number of genes analyzed: Apoptosis” value (podocytes genes) was 9/72 and the “CaSR-regulated genes/number of genes analyzed: Cytokine receptor interactions” value (podocytes genes) was 29/187. The “CaSR-regulated genes/number of genes analyzed: Focal Adhesions” value (podocytes genes) was 30/174, the “CaSR-regulated genes/number of genes analyzed: MAPK signaling pathways” value (podocytes genes) was 30/193 and the “CaSR-regulated genes/number of genes analyzed: Nfkb signaling” value (podocytes genes) was 8/79. For the same compound, the “CaSR-regulated genes/number of genes analyzed: Regulation of actin cytoskeleton” value (podocytes genes) was 26/171, the “CaSR-regulated genes/number of genes analyzed: TGF beta signaling pathway” value (podocytes genes) was 9/62 and the “CaSR-regulated genes/number of genes analyzed: Toll-like-receptor signaling” value (podocytes genes) was 10/69. The “CaSR-regulated genes/number of genes analyzed: Wnt signaling pathways” value (podocytes genes) was 15/116, the “mRNA expression of pro-apoptotic genes calpain 1, calpain small subunit 1, caspase 7 and caspase 8” value (podocytes genes) was “down-regulated” and the “mRNA expression of pro-survival factor Bcl-2” value (podocytes genes) was “up-regulated”. For the same compound, the “genes significantly regulated out of 15000 genes investigated” value (podocytes genes; vs untreated cells) was 10%, the “phosphorylation of ERK1/2” value (ERK1/2; 4 to 50 nmol/l, dose- and time-dependent, HCl) was “phosphorylation of ERK1/2 occurs; also recorded: time and dose dependent phosphorylation” and the “activation of ERK1/2” value (ERK1/2; 10 mol/l as printed, not further increased by higher concentrations) was “strong activation”. The “time of first detectable ERK1/2 phosphorylation steps” value (ERK1/2; Compound A incubation) was 2 min, the “time of maximal ERK1/2 phosphorylation” value (ERK1/2; Compound A incubation) was 10 min and the “proteinuria in group receiving PAN and Compound A” value (PAN-treated rats; male Sprague-Dawley rats, PAN 15 mg/100 g i.p., Compound A 2 mg/100 g body weight single injection, HCl) was “significant protection; also recorded: successfully impeded; also recorded: prevent the development of proteinuria”. The “proteinuria after a single dose, compared to untreated control rats receiving saline” value (PAN-treated rats; rats, after day 6, intraperitoneal) was “significantly induced”, the JNK activation (JNK) was “no activation; also recorded: not activated” and the p90RSK phosphorylation (p90RSK) was “phosphorylated in a similar time pattern as ERK1/2; also recorded: induction”. For the same compound, the Bcl-xl expression (Bcl-xL) was “induced in a time-dependent way; also recorded: increased expression” and the “p38 MAPK phosphorylation” value (p38 MAPK) was “clear biphasic response pattern; also recorded: biphasic phosphorylation”.
`N#CC(=C(/N)Sc1ccccc1N)/C(C#N)=C(\N)Sc1ccccc1N` [Compound U0126, reference compound] was tested, and the “phosphorylation of CREB in presence of MEK1/2 inhibitor” value (CREB; inhibitor 10 μM) was “suppressed”, the “calcimimetic-induced phosphorylation of CREB in presence of inhibitor (FIG. 10 legend)” value (CREB; [1]) was “strongly inhibits” and the “Compound A-induced phosphorylation of ERK1/2 in presence of MEK1/2 inhibitor” value (ERK1/2; inhibitor 10 μM) was “abolish completely”. The “calcimimetic-induced phosphorylation of ERK 1/2 in presence of inhibitor (FIG. 10 legend)” value (ERK1/2; [1]) was “strongly inhibits”.
In the case of `CN(C)c1ncnc2c1ncn2[C@@H]1O[C@H](CO)[C@@H](N)[C@H]1O` [PAN, puromycin aminonucleoside, reference compound], the “apoptosis rate of cultured podocytes” value (podocytes; 48 hrs of incubation) is reported as 44% and the “apoptosis rate of cultured podocytes” value (podocytes; 60 hrs of incubation) is reported as 78%.
